The results in this text go back to US20220192978A1, “Pharmaceutical Inhalation Aerosol and Preparation Method Therefor” (CF PharmTech, Inc., priority 2019, published 2022).

Structures can show the parent of a compound that is named as a salt.

A short description of series [1]: Anderson cascade impactor (ACI) test of the inhalation aerosol (deposition rate per plate, FPF). The format is physicochemical. The settings on record: for Fine Particle Fraction (FPF) (lung): in single or compound preparations (MDI); for FPF of glycopyrronium bromide (%) / FPF of indacaterol maleate (%): inhalation aerosol prepared directly from micronized powder(s), no co-micronization; for Fine Particle Fraction (in words): prepared as a suspension-type inhalation aerosol. The protocol: Prescription amounts of glycopyrronium bromide and indacaterol maleate were added to an aluminum can, valve-sealed, and filled with propellant, HFA-134a. After being inverted for 2 days, it was tested according to 0951, volume IV general rules of the Pharmacopoeia of the People's Republic of China 2015 Edition. The sum of the deposition from the stage plate 3 to the filter membrane is the Fine Particle Dose (FPD). The FPD (less than 5 μm) divided by the total amount collected by the Anderson cascade impactor (Total Dose, TD) is the Fine Particle Fraction (FPF).
Micronized powders were precisely weighed and placed in a 14 mL fluorocarbon polymerization (FCP)-coated aluminum can, valve-sealed, filled, ultrasonicated for 10 minutes, and then kept for 2 days for Anderson cascade impactor testing. It was tested according to 0951 device 2, volume IV general rules of the Pharmacopoeia of the People's Republic of China 2015 Edition. The relative humidity of the test environment should be 45% to 55%. The flow rate was adjusted to 28.3±1.5 liters per minute. Take 1 bottle of this product, shake it sufficiently, and discard 4 sprays. Wipe the mouthpiece with ethanol, dry it sufficiently, turn on the vacuum pump, shake for 5 seconds (note that shake for 5 seconds before each spray and the interval between sprays is 30 seconds), insert the product into the adapter, and spray once immediately. After removing the aluminum can and the driver, shake for 5 seconds, reinsert into the adapter, and immediately spray the second time. Repeat this process until the completion of 10 sprays. After the last spray, wait 1 minute, then remove the aluminum can and driver, turn off the vacuum pump, and remove the device. The various plates of the Anderson impactor were washed with a specific ratio of methanol aqueous solution, and the content of the drugs deposited on each plate was determined by HPLC.

Series [2] can be described thus: particle size test of micronized powder (D10, D50, D90, SPAN). The settings on record: fine powder used for direct mixing. The format is physicochemical. The source says:
In the invention, D90 is described as the volume of particles smaller than a certain particle size (x) accounts for 90% of the total volume of the particles, D50 is described as the volume of particles smaller than a certain particle size (x) accounts for 50% of the total volume of the particles, and D10 is described as the volume of particles smaller than a certain particle size (x) accounts for 10% of the total volume of the particles.
The pressure of the jet mill was decreased and the above steps were repeated, in order to investigate the effect of pressure (10 bar, 8 bar, 4 bar, 3 bar, 2 bar) on the particle size of the glycopyrronium bromide/indacaterol maleate mixture, the Fine Particle Fraction of glycopyrronium bromide and the degree of co-deposition of the two active ingredients.

Regarding `C[N+]1(C)CCC(OC(=O)C(O)(c2ccccc2)C2CCCC2)C1` (stereo not shown) [glycopyrronium bromide], in series [1], the “Fine Particle Fraction (FPF) (lung)” value was 15-20%, the “FPF of glycopyrronium bromide (%)” value stood at 25.68% and the “Fine Particle Fraction (in words)” value is given as “low”. Also, in series [1] (listed as glycopyrronium bromide fine powder), the “FPF of glycopyrronium bromide (%)” value was 24%. In addition, the D90 in series [2] turned out to be 3.43 μm.

Turning to `CCc1cc2c(cc1CC)CC(NC[C@H](O)c1ccc(O)c3[nH]c(=O)ccc13)C2` [indacaterol maleate], in series [1], the “Fine Particle Fraction (FPF) (lung)” value was 40-50%, the “FPF of indacaterol maleate (%)” value came out at 45.66% and the “Fine Particle Fraction (in words)” value was “high”. The “FPF of indacaterol maleate (%)” value in series [1] (listed as indacaterol fine powder) is 45%. The molecule also returned a D90 in series [2] of 3.84 μm.
